Drawing on patent publication US10202378B2, “Therapeutic compounds and uses thereof” (GENENTECH, INC., priority 2015, dated 2019), this text covers IC50 for 22 compounds.

The target in one assay is TAF1-BD2 (Homo sapiens, UniProt P21675). In words: TAF1-BD2 TR-FRET Binding Assay. As to conditions: read-out: TAF1-BD2 HTRF IC50. For orientation: Time-resolved FRET reads energy transfer from a long-lived donor to a nearby acceptor.
For another assay, the target named is TAF1-BD1 (Homo sapiens, UniProt P21675). In words: TAF1-BD1 TR-FRET Binding Assay. As to conditions: read-out: TAF1-BD1 HTRF IC50.

One may read the IC50 as the midpoint of a concentration-inhibition curve.

With `Cc1[nH]c2c(=O)n(C)cc(C#CC(C)(O)C3CC3)c2c1-c1nnco1` (centres unmarked) [Example 182, 4-(3-cyclopropyl-3-hydroxy-but-1-ynyl)-2,6-dimethyl-3-(1,3,4-oxadiazol-2-yl)-1H-pyrrolo[2,3-c]pyridin-7-one], the IC50 was determined as 0.0535 µM on TAF1-BD2 and 0.285 µM at TAF1-BD1.
With `Cc1[nH]c2c(=O)n(C)cc(C#CC(O)(c3ccccc3)C(F)(F)F)c2c1-c1nnco1` (centres unmarked) [Example 183, 2,6-dimethyl-3-(1,3,4-oxadiazol-2-yl)-4-(4,4,4-trifluoro-3-hydroxy-3-phenyl-but-1-ynyl)-1H-pyrrolo[2,3-c]pyridin-7-one], the IC50 at TAF1-BD2 came to 0.0502 µM; at TAF1-BD1 it was 0.598 µM.
Turning to `Cc1nnc(-c2c(C)[nH]c3c(=O)n(C)cc(C#CC(O)(c4ccccc4)C(F)(F)F)c23)o1` (centres unmarked) [Example 184, 2,6-dimethyl-3-(5-methyl-1,3,4-oxadiazol-2-yl)-4-(4,4,4-trifluoro-3-hydroxy-3-phenyl-but-1-ynyl)-1H-pyrrolo[2,3-c]pyridin-7-one], the IC50 at TAF1-BD2 was 0.0627 µM; at TAF1-BD1, 0.327 µM.
For `Cc1[nH]c2c(=O)n(C)cc(C#CC(C)(O)C3CC3)c2c1-c1nnc(C(C)(C)C)o1` (centres unmarked) [Example 187, 3-(5-tert-butyl-1,3,4-oxadiazol-2-yl)-4-(3-cyclopropyl-3-hydroxy-but-1-ynyl)-2,6-dimethyl-1H-pyrrolo[2,3-c]pyridin-7-one], in that order: 0.058 µM and 0.216 µM.
Turning to `Cc1[nH]c2c(=O)n(C)cc(C#CC(O)(c3ccccc3)C(F)(F)F)c2c1-c1nnc(C(C)(C)C)o1` (centres unmarked) [Example 188, 3-(5-tert-butyl-1,3,4-oxadiazol-2-yl)-2,6-dimethyl-4-(4,4,4-trifluoro-3-hydroxy-3-phenyl-but-1-ynyl)-1H-pyrrolo[2,3-c]pyridin-7-one], the values for the IC50 on TAF1-BD2 and at TAF1-BD1 were 0.0862 µM and 0.385 µM, respectively.
The corresponding values for `Cc1cc([C@](C)(O)C#Cc2cn(C)c(=O)c3[nH]c(C)c(-c4nnc(C5CC5)o4)c23)no1` [Example 190, 3-(5-cyclopropyl-1,3,4-oxadiazol-2-yl)-4-[(3R)-3-hydroxy-3-(5-methylisoxazol-3-yl)but-1-ynyl]-2,6-dimethyl-1H-pyrrolo[2,3-c]pyridin-7-one] are 0.0499 µM and 0.239 µM.
As to `Cc1[nH]c2c(=O)n(C)cc(C#CC(C)(O)C3CC3)c2c1-c1nnc(C(C)C)o1` (centres unmarked) [Example 191, 4-(3-cyclopropyl-3-hydroxy-but-1-ynyl)-3-(5-isopropyl-1,3,4-oxadiazol-2-yl)-2,6-dimethyl-1H-pyrrolo[2,3-c]pyridin-7-one], the half-maximal inhibitory concentration (IC50) on TAF1-BD2 worked out at 0.0364 µM; on TAF1-BD1 it was 0.27 µM.
On to `Cc1nnc(-c2c(C)[nH]c3c(=O)n(C)cc(C#CC(C)(O)C4CC4)c23)o1` (centres unmarked) [Example 192, 4-(3-cyclopropyl-3-hydroxy-but-1-ynyl)-2,6-dimethyl-3-(5-methyl-1,3,4-oxadiazol-2-yl)-1H-pyrrolo[2,3-c]pyridin-7-one], for which the IC50 on TAF1-BD2 is 0.0616 µM; at TAF1-BD1 it was 0.335 µM.
The corresponding values for `Cc1cc([C@](C)(O)C#Cc2cn(C)c(=O)c3[nH]c(C)c(-c4nnc(C)o4)c23)no1` [Example 193, 4-[(3R)-3-hydroxy-3-(5-methylisoxazol-3-yl)but-1-ynyl]-2,6-dimethyl-3-(5-methyl-1,3,4-oxadiazol-2-yl)-1H-pyrrolo[2,3-c]pyridin-7-one] are 0.153 µM and 0.517 µM.
Consider `Cc1cc([C@](C)(O)C#Cc2cn(C)c(=O)c3[nH]c(C)c(-c4nnc(C(C)C)o4)c23)no1` [Example 194, 4-[(3R)-3-hydroxy-3-(5-methylisoxazol-3-yl)but-1-ynyl]-3-(5-isopropyl-1,3,4-oxadiazol-2-yl)-2,6-dimethyl-1H-pyrrolo[2,3-c]pyridin-7-one], for which the IC50 on TAF1-BD2 was determined as 0.0691 µM; on TAF1-BD1, 0.244 µM.
For `Cc1[nH]c2c(=O)n(C)cc(C#CC(C)(C)O)c2c1-c1nnc(C(C)C)o1` [Example 195, 4-(3-hydroxy-3-methyl-but-1-ynyl)-3-(5-isopropyl-1,3,4-oxadiazol-2-yl)-2,6-dimethyl-1H-pyrrolo[2,3-c]pyridin-7-one], in that order: 0.0294 µM and 0.36 µM.
For `CCOC(=O)c1c(C)[nH]c2c(=O)n(C)cc(C#CC(O)(c3cccc(C(N)=O)c3)C(F)(F)F)c12` (centres unmarked) [Example 197, ethyl 4-[3-(3-carbamoylphenyl)-4,4,4-trifluoro-3-hydroxy-but-1-ynyl]-2,6-dimethyl-7-oxo-1H-pyrrolo[2,3-c]pyridine-3-carboxylate], the results for the IC50 on TAF1-BD2 and at TAF1-BD1 were 0.0341 µM and 0.185 µM, respectively.
Regarding `Cc1cc2c(C#CC(C)(C)O)cn(C)c(=O)c2[nH]1` [Example 198, 4-(3-hydroxy-3-methyl-but-1-ynyl)-2,6-dimethyl-1H-pyrrolo[2,3-c]pyridin-7-one], the IC50 was 0.536 µM on TAF1-BD2 and 1.74 µM on TAF1-BD1.
The corresponding values for `CC(=O)c1c(C)[nH]c2c(=O)n(C)cc(C#CC(C)(C)O)c12` [Example 199a, 3-acetyl-4-(3-hydroxy-3-methyl-but-1-ynyl)-2,6-dimethyl-1H-pyrrolo[2,3-c]pyridin-7-one] are 0.13 µM and 1.3 µM.
On to `CC(=O)c1c(C)n(C)c2c(=O)[nH]cc(C#CC(C)(C)O)c12` [Example 199b, 3-acetyl-4-(3-hydroxy-3-methyl-but-1-ynyl)-1,2-dimethyl-6H-pyrrolo[2,3-c]pyridin-7-one], for which the IC50 on TAF1-BD2 and on TAF1-BD1 was 20 µM each time.
As for `Cc1[nH]c2c(=O)n(C)cc(C#CC(C)(C)O)c2c1C(=O)O` [Example 200, 4-(3-hydroxy-3-methyl-but-1-ynyl)-2,6-dimethyl-7-oxo-1H-pyrrolo[2,3-c]pyridine-3-carboxylic acid], the IC50 stood at 13.7 µM on TAF1-BD2 and 20 µM on TAF1-BD1.
As to `Cc1[nH]c2c(=O)n(C)cc(C#CC(C)(C)O)c2c1C1=NC(C(C)C)CO1` (centres unmarked) [Example 202, 4-(3-hydroxy-3-methyl-but-1-ynyl)-3-(4-isopropyl-4,5-dihydrooxazol-2-yl)-2,6-dimethyl-1H-pyrrolo[2,3-c]pyridin-7-one], the IC50 was found to be 0.176 µM on TAF1-BD2 and 1.23 µM on TAF1-BD1.
The corresponding values for `Cc1[nH]c2c(=O)n(C)cc(C#CC(C)(O)C3CC3)c2c1C1=NC(C(C)C)CO1` (centres unmarked) [Example 203, 4-(3-cyclopropyl-3-hydroxy-but-1-ynyl)-3-(4-isopropyl-4,5-dihydrooxazol-2-yl)-2,6-dimethyl-1H-pyrrolo[2,3-c]pyridin-7-one] are 0.307 µM and 1.12 µM.
For `Cc1[nH]c2c(=O)n(C)cc(C#CC(C)(O)C3CC3)c2c1C1=NCC(C)(C)O1` (centres unmarked) [Example 204, 4-(3-cyclopropyl-3-hydroxy-but-1-ynyl)-3-(5,5-dimethyl-4H-oxazol-2-yl)-2,6-dimethyl-1H-pyrrolo[2,3-c]pyridin-7-one], in that order: 0.147 µM and 1.03 µM.
As to `Cc1[nH]c2c(=O)n(C)cc(C#CC(O)(c3ccccc3)C(F)(F)F)c2c1-c1nnc(CO)o1` (centres unmarked) [Example 205, 3-(5-(hydroxymethyl)-1,3,4-oxadiazol-2-yl)-2,6-dimethyl-4-(4,4,4-trifluoro-3-hydroxy-3-phenyl-but-1-ynyl)-1H-pyrrolo[2,3-c]pyridin-7-one], the figures for the IC50 on TAF1-BD2 and at TAF1-BD1 were 0.0888 µM and 0.334 µM, respectively.
As for `CCOC(=O)c1c(C2CC2)[nH]c2c(=O)n(C)cc(C#CC(C)(C)O)c12` [Example 207, ethyl 2-cyclopropyl-4-(3-hydroxy-3-methyl-but-1-ynyl)-6-methyl-7-oxo-1H-pyrrolo[2,3-c]pyridine-3-carboxylate], the IC50 on TAF1-BD2 amounted to 0.353 µM; on TAF1-BD1, 0.957 µM.
For `CCOC(=O)c1c(C)[nH]c2c(=O)n(C)cc(C#CC(O)(c3cccc(N4CCOCC4)c3)C(F)(F)F)c12` (centres unmarked) [Example 208, ethyl 2,6-dimethyl-7-oxo-4-[4,4,4-trifluoro-3-hydroxy-3-(3-morpholinophenyl)but-1-ynyl]-1H-pyrrolo[2,3-c]pyridine-3-carboxylate], in that order: 0.0795 µM and 0.438 µM.
